Measurements reported in PubChem BioAssay (NCI).
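Briefly, cells in 96-well plates were exposed to five compound concentrations for 48 h, and endpoints were estimated by linear interpolation. At the TGI there is no net growth.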

Columns and labels:
Assay in all cases: inhibition of tumour cell growth, NCI panel, 48 h
BT-549 breast = test system: BT-549 breast
MOLT-4 leukemia = test system: MOLT-4 leukemia
A549 NSCLC = test system: A549 NSCLC
UACC-62 melanoma = test system: UACC-62 melanoma
SNB-75 CNS = test system: SNB-75 CNS
HS 578T breast = test system: HS 578T breast
SNB-19 CNS = test system: SNB-19 CNS
U251 CNS = test system: U251 CNS
SN12C renal = test system: SN12C renal
SK-MEL-5 melanoma = test system: SK-MEL-5 melanoma
OVCAR-4 ovarian = test system: OVCAR-4 ovarian
NCI-H226 lung = test system: NCI-H226 lung
HCC-2998 colon = test system: HCC-2998 colon
OVCAR-3 ovarian = test system: OVCAR-3 ovarian
SK-MEL-2 melanoma = test system: SK-MEL-2 melanoma
SF-268 CNS = test system: SF-268 CNS
HCT-15 colon = test system: HCT-15 colon
RPMI-8226 leukemia = test system: RPMI-8226 leukemia
EKVX NSCLC = test system: EKVX NSCLC
SK-MEL-28 melanoma = test system: SK-MEL-28 melanoma
M14 melanoma = test system: M14 melanoma
HT29 colon = test system: HT29 colon
NCI-H23 lung = test system: NCI-H23 lung
NCI-H522 lung = test system: NCI-H522 lung
786-0 renal = test system: 786-0 renal
SR leukemia = test system: SR leukemia
ACHN renal = test system: ACHN renal
K-562 leukemia = test system: K-562 leukemia
PC-3 prostate = test system: PC-3 prostate
UO-31 renal = test system: UO-31 renal
IGROV1 ovarian = test system: IGROV1 ovarian
OVCAR-8 ovarian = test system: OVCAR-8 ovarian
MCF7 breast = test system: MCF7 breast
OVCAR-5 ovarian = test system: OVCAR-5 ovarian
SF-295 CNS = test system: SF-295 CNS
HOP-62 NSCLC = test system: HOP-62 NSCLC
UACC-257 melanoma = test system: UACC-257 melanoma
NCI-H460 lung = test system: NCI-H460 lung
NCI/ADR-RES ovarian = test system: NCI/ADR-RES ovarian
SF-539 CNS = test system: SF-539 CNS
CCRF-CEM leukemia = test system: CCRF-CEM leukemia
TK-10 renal = test system: TK-10 renal
LOX IMVI melanoma = test system: LOX IMVI melanoma
RXF 393 renal = test system: RXF 393 renal
SW-620 colon = test system: SW-620 colon
MALME-3M melanoma = test system: MALME-3M melanoma
MDA-MB-435 = test system: MDA-MB-435
KM12 colon = test system: KM12 colon

Measured: TGI

Nc1nc2ncc(CNc3ccc(C(=O)NC(CCC(=O)O)C(=O)O)cc3)nc2c(=O)[nH]1 (stereo not drawn)
> 100 µM: BT-549 breast | MOLT-4 leukemia | A549 NSCLC | UACC-62 melanoma | SNB-75 CNS | HS 578T breast | SNB-19 CNS | U251 CNS | SN12C renal | SK-MEL-5 melanoma | OVCAR-4 ovarian | NCI-H226 lung | HCC-2998 colon | OVCAR-3 ovarian | SK-MEL-2 melanoma | SF-268 CNS | HCT-15 colon | RPMI-8226 leukemia | EKVX NSCLC | SK-MEL-28 melanoma | M14 melanoma | HT29 colon | NCI-H23 lung | NCI-H522 lung | 786-0 renal | SR leukemia | ACHN renal | K-562 leukemia | PC-3 prostate | UO-31 renal | IGROV1 ovarian | OVCAR-8 ovarian | MCF7 breast | OVCAR-5 ovarian | SF-295 CNS | HOP-62 NSCLC | UACC-257 melanoma | NCI-H460 lung | NCI/ADR-RES ovarian | SF-539 CNS | CCRF-CEM leukemia | TK-10 renal | LOX IMVI melanoma | RXF 393 renal | SW-620 colon | MALME-3M melanoma | MDA-MB-435 | KM12 colon
